Patent publication US20190307820A1, “COMPOSITIONS AND METHODS OF USING STAT1/3 INHIBITORS WITH ONCOLYTIC HERPES VIRUS” (priority 2016, published 2019)
Where a name gives a salt, the structure may show the parent alone.

Columns and labels:
ICP4 = test: Western blot of ICP4 in HSV-1 infected microglia cells; assay type: cell-based; conditions: G207 infected; 1 μM C16, 1 μM Bay11 or 100 μM AG; 24 hours
Method: FIG. 12B depicts an electrophoresis gel showing total proteins that were harvested from G2O7 infected microglia cells at 24 hours post treatment with either 1 μM of C16, 1 μM of Bay11, or 100 μM of AG. ICP27, ICP4, and […] expression was measured by western blot assay. U87 and MG co-culture were pretreated with 0.5 μM of C16 for 1 hour.
Total protein was harvested with sample buffer (125 mM Tris-HCL, 50% Glycerol, […] and 5% 2-mercaptoethanol) and boiled for 5 minutes. Protein samples were subjected to SDS-PAGE (8% gel), transferred to nitrocellulose membranes and blocked in 5% nonfat milk (Bio Rad) in TBS-Tween 20 (TBS-T) for 1 hour at room temperature. The membranes were then incubated with primary antibody against β-actin at 1:1000 (Cell Signaling, Danvers, Mass.) or anti-STAT1 antibody at 1:1000 (Cell Signaling, Danvers, Mass.) or anti-STAT3 antibody at 1:1000 (Cell Signaling, Danvers, Mass.) or anti-phospho STAT1 antibody (Tyr701) at 1:1000 (Cell Signaling, Danvers, Mass.) or anti-phospho STAT3 antibody (Tyr705) at 1:1500 (Cell Signaling, Danvers, Mass.) or anti-phosphor-eIF2a antibody (ser51) at 1:1000 (Cell Signaling, Danvers, Mass.) or anti-ICP27 antibody at 1:1000 (Abcam, Cambridge, Mass.) or anti-ICP4 antibody at 1:750 (Abcam, Cambridge, Mass.) for overnight at 4° C. […] Band density was measured by using ImageJ software (NIH, Bethesda, Md.). […]

[1] = system: oHSV-1 (G207) in BV2 cells; test: G207 replication in BV2 cells with chemical inhibitors, plaque forming assay; assay type: cell-based, HSV-1; conditions: G207 MOI of 1, 48 hours
Method: (§1) FIG. 12A contains bar graphs showing the results of BV2 cells that were pre-treated with indicated chemical compounds for 1-2 hours and then infected with oHSV-1 at an MOI of 1. Viruses were harvested after 48 hours of oHSV-1 (G207) and indicated chemical inhibitor treatment.
as §1, with “12F is a” for “12A contains”, “graph” for “graphs”, “treatment. After 48 hours of treatment with oHSV-1 (G207) and C16, viruses were harvested and titrated by plaque forming assay on vero cells.” for “treatment.”
U87 (5×104) alone or U87+microglia co-culture (5×104+5×104) or BV2 microglia cells (5×104) alone were seeded into a 24-well plate. After overnight incubation (to allow the cells to attach), cells were pretreated with indicated concentration of NFkB inhibitor, Bay-11 (Santa Cruz, Canada) or an indicated concentration of imidazolo-oxindole derivative C16 (Milipore, Canada) or vehicle for 1-2 hours. The cells were then infected with oHSV-1 (G207 or HrR3) virus at a MOI of 1 in presence of chemical inhibitors for another 2 days. The viruses were harvested and titrated in vero cells by plaque forming assay in 12-well plates by triplicates.
The effects of a PKR inhibitor (C16), a NFkappaB inhibitor (Bay11), and an iNOS inhibitor (aminoguanidine hydrochloride) were tested on G207 replication in BV2 cells (Example 15). […] To verify that C16-mediated viral gene transcriptional augmentation is not due to deletions in ICP34.5 and/or ICP6 in G207, the effect of C16 on wild type (KOS) and ICP6 mutated (HrR3) HSV-1 infected BV2 cells was also examined. […] Finally, whether C16 can overcome this microglia-mediated suppression of viral replication in glioma cells was examined.

## Cc1ccc(S(=O)(=O)/C=C/C#N)cc1 [Bay11]
ICP4
  upregulated expression of ICP4: not
[1]
  effect on oHSV-1 replication: no effect on oHSV-1 replication

## N=C(N)NN [aminoguanidine hydrochloride]
[1]
  effect on oHSV-1 replication: no effect on oHSV-1 replication
